Our source for the inhibition in vivo and IC50 values is patent US9499553B2 (CHUGAI SEIYAKU KABUSHIKI KAISHA, priority 2013, dated 2016).

Test [1] has as its system adenine-induced renal failure rat. Kind of test: Suppressive effect on rise in serum phosphorus concentration of adenine-induced renal failure rat (0.1% in feed, 3 days). In kind it is in vivo. The conditions noted are these: feed or water, 72 h, 0.1% of mass concentration in feed, read-out: Rate of inhibition (%) (suppression of a rise in serum phosphorus concentration). An excerpt:
Test Example 5: Suppressive Effect on Rise in Serum Phosphorus Concentration of Adenine-Induced Renal Failure Rat
Adenine was forcedly administered orally to each Wistar male rat (7-8 weeks old) to impair renal functions and thereby prepare a hyperphosphatemia model (Katsumata K, Kusano K, Hirata M, Tsunemi K, Nagano N, Burke S K, Fukushima N. Sevelamer hydrochloride prevents ectopic calcification and renal osteodystrophy in chronic renal failure rats. Kidney Int. 2003 August; 64 (2): 441-50). Each test compound was mixed at a ratio of 0.1% of mass concentration with feed. The animal was fed with a given amount of the feed for 3 days. A group given feed non-supplemented with a test compound was used as a reference pathological group, and an adenine-unadministered group given feed non-supplemented with a test compound was used as a normal group. […] Serum phosphorus concentrations were measured by the Fiske-Subbarow method. The rate of suppression of a rise in serum phosphorus concentration was determined according to the following expression: Rate (%) of suppression of a rise in serum phosphorus concentration=(1−[(Serum phosphorus concentration of the test compound-treated pathological group)−(Serum phosphorus concentration of the normal group)]/[(Serum phosphorus concentration of the reference pathological group)−(Serum phosphorus concentration of the normal group)])×100

In test [2] the target is T1, human NaPi-IIb (Homo sapiens, UniProt O95436).
T1 construct: expressed in transfected cells
T1 sequence (O95436 1-690): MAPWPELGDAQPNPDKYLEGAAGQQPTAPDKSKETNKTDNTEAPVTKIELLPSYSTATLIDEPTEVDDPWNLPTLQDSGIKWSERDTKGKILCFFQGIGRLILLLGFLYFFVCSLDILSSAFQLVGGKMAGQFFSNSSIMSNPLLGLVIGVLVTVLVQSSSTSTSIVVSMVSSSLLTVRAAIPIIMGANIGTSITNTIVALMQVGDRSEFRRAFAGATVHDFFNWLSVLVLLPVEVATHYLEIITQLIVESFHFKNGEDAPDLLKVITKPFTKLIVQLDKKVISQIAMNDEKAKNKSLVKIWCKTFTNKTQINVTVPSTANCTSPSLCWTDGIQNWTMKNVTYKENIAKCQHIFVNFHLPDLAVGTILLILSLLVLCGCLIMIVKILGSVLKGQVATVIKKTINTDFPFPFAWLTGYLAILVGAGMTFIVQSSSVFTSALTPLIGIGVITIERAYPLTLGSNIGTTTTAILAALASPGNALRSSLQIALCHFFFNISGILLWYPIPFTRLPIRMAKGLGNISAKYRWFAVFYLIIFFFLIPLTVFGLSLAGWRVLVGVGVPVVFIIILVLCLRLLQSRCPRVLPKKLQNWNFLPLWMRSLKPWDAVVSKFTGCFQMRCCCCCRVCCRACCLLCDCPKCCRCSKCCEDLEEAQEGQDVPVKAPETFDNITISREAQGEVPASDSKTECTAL
Kind of test: Inhibitory effect on 33PO4 uptake into human NaPi-IIb-expressing CHO cells. It is filed as cell-based. The conditions noted are these: read-out: IC50. The method, boiled down:
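Stable human NaPi-IIb CHO line (G418-selected), plated and cultured overnight; ³³PO4 added in buffer A and uptake run at room temperature. Cells washed with ice-cold buffer A, then uptake counted by liquid scintillation.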

Test [3] concerns the target T2, human PiT-2 (Homo sapiens, UniProt Q08357).
T2 construct: expressed in transfected cells; host or cells: CHO cells
T2 sequence (Q08357 1-652): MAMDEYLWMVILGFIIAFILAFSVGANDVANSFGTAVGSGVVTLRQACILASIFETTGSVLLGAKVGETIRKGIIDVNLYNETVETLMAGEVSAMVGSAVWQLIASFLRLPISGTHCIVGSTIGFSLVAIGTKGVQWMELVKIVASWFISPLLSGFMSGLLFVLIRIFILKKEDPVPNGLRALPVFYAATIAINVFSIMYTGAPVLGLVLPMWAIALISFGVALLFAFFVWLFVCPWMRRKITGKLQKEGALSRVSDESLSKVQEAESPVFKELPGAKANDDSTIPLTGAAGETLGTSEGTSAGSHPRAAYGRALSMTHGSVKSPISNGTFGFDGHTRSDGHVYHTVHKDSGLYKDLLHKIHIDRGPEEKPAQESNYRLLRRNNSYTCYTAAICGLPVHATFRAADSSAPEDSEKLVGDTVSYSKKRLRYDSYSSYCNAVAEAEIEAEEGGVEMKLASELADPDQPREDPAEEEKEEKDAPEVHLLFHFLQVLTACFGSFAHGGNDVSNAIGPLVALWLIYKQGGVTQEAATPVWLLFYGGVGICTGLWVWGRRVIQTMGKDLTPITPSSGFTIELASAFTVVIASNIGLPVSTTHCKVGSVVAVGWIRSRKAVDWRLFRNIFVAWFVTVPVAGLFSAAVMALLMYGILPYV
Kind of test: Inhibitory effect on 33PO4 uptake into human PiT-2-expressing CHO cells. The settings on record: pH 6.5, read-out: IC50 against 33PO4 uptake into human PiT-2-expressing cells. It is filed as cell-based. The method in brief: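 CHO cells transfected with human PiT-2 or empty vector, then exposed to ^33PO4 at room temperature after compound preincubation. Uptake counted by scintillation. Inhibition computed from PiT-2 minus vector-cell uptake, relative to the DMSO control.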

Test [4] deals with T3, human PiT-1 (Homo sapiens, UniProt Q8WUM9).
T3 construct: expressed in transfected cells; host or cells: CHO cells
T3 sequence (Q8WUM9 1-679): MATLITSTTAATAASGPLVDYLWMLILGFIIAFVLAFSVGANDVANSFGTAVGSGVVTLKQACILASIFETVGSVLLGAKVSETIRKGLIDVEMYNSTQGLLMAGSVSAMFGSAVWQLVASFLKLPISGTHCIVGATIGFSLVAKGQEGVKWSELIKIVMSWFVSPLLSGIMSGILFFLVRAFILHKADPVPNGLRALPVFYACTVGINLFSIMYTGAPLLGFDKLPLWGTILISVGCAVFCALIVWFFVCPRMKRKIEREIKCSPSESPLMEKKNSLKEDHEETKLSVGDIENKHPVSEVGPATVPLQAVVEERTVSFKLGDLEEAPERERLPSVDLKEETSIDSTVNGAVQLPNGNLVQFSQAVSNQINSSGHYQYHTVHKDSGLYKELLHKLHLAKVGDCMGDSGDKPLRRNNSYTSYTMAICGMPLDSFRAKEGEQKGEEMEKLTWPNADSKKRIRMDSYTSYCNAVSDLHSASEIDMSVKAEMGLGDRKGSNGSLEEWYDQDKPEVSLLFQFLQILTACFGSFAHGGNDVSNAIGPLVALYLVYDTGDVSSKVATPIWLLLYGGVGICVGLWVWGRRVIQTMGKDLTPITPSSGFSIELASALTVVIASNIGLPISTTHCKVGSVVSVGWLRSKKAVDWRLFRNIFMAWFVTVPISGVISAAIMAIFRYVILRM
Kind of test: Inhibitory effect on 33PO4 uptake into human PiT-1-expressing CHO cells. In kind it is cell-based. The settings on record: compound 0.24, 1.2, 6 or 30 μM, pH 6.5, read-out: IC50 against 33PO4 uptake into human PiT-1-expressing cells. The method, then:
Test Example 3: Inhibitory Effect on ^33PO4 Uptake into Human PiT-1-Expressing Cell
CHO cells were transfected with human PiT-1 expression plasmids or empty vectors to prepare human PiT-1-expressing cells and empty vector-expressing cells. The human PiT-1-expressing cells or the empty vector-expressing cells were inoculated to a 96-well plate and incubated overnight in a CO2 incubator. […] After a given time, a 1/20 volume of buffer A containing ^33PO4 was added thereto and reacted at room temperature. After washing with ice-cold buffer A, a liquid scintillator was added to each reaction mixture, and the amount of ^33PO4 uptake was measured using TopCount. The rate of inhibition was determined according to the following expression: Rate (%) of inhibition=(1−(Amount of ^33PO4 uptake in the compound-supplemented well containing the human PiT-1-expressing cells−Amount of ^33PO4 uptake in the compound-supplemented well containing the empty vector-expressing cells)/(Amount of ^33PO4 uptake in the DMSO-supplemented well containing the human PiT-1-expressing cells −Amount of ^33PO4 uptake in the DMSO-supplemented well containing the empty vector-expressing cells))×100

The structures appear in SMILES notation.

For `C[C@]12CCCN1N(Cc1ccc(OCCN3CCOCC3)c(F)c1F)C(=O)C(C(=O)Nc1ccc(C(F)(F)F)cc1-c1ccnc(C#N)c1)=C2O` [Example 52, (4aR)-N-[2-(2-Cyanopyridin-4-yl)-4-(trifluoromethyl)phenyl]-1-[[2,3-difluoro-4-(2-morpholin-4-ylethoxy)phenyl]methyl]-4-hydroxy-4a-methyl-2-oxo-6,7-dihydro-5H-pyrrolo[1,2-b]pyridazine-3-carboxamide], the inhibition in vivo at 0.1 %, 0.1 % in feed in test [1] amounted to 20%. Further, the half-maximal inhibitory concentration (IC50) (usually the concentration that inhibits the measured activity by half) in test [2] stood at 16.8 µM.

Consider `C[C@]12CCCN1N(Cc1cccc(F)c1F)C(=O)C(C(=O)Nc1ccc(C(F)(F)F)cc1-c1cc(C(F)(F)F)ncn1)=C2O` [Example 21, (4aR)-1-[(2,3-Difluoro-phenyl)methyl]-4-hydroxy-4a-methyl-2-oxo-N-[4-(trifluoromethyl)-2-[6-(trifluoromethyl)pyrimidin-4-yl]phenyl]-6,7-dihydro-5H-pyrrolo [1,2-b]pyridazine-3-carboxamide], for which the half-inhibitory concentration (IC50) is 3.6 µM in test [3] and 2.8 µM in test [2]. Moreover, the inhibition in vivo at 0.1 %, 0.1 % in feed in test [1] worked out at 24%.

Turning to `C[C@]12CCCN1N(Cc1ccc(OCCCCCCOC[C@H](O)CO)c(F)c1F)C(=O)C(C(=O)Nc1cnc(C(F)(F)F)nc1-c1ccc(C(F)(F)F)nc1)=C2O` [Example 156, (4aR)-1-[[4-[6-[(2R)-2,3-Dihydroxypropoxy]hexoxy]-2,3-difluorophenyl]methyl]-4-hydroxy-4a-methyl-2-oxo-N-[2-(trifluoromethyl)-4-[6-(trifluoromethyl)pyridin-3-yl]pyrimidin-5-yl]-6,7-dihydro-5H-pyrrolo[1,2-b]pyridazine-3-carboxamide], the figures for the IC50 in test [3], in test [2] and in test [4] were 7.2 µM, 3.2 µM and 3.9 µM, respectively.
